According to ChEMBL document CHEMBL1136141, “2-Phenyl-5,6-dihydro-2H-thieno[3,2-c]pyrazol-3-ol derivatives as new inhibitors of bacterial cell wall biosynthesis” (Bioorg Med Chem Lett, 2003):
Converted amounts (≈) assume the structure as drawn.

How the values were obtained:
Bacteria = assay: Minimum inhibitory activity against gram negative bacteria; format: functional
[1] = molecular target: T1, UDP-N-acetylenolpyruvoylglucosamine reductase (Staphylococcus aureus, UniProt P61431); assay: In vitro inhibitory activity against Staphylococcus aureus UDP-N-acetylmuramate dehydrogenase
T1 sequence (P61431 whole entry): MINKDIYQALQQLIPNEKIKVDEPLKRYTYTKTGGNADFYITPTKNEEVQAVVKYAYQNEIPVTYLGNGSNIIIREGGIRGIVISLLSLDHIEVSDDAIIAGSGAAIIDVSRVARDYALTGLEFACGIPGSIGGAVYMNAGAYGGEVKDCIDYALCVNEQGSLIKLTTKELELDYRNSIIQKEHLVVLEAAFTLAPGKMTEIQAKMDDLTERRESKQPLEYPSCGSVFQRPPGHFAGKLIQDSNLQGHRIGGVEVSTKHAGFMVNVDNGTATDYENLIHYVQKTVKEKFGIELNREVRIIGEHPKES

[2] = Partition coefficient (logP); format: physicochemical; settings: octanol/water
[3] = molecular target: T2, UDP-N-acetylmuramate--L-alanine ligase (Staphylococcus aureus, UniProt O31211); assay: In vitro inhibitory activity against Staphylococcus aureus UDP-N-acetylmuramoyl-L-alanine synthetase
T2 sequence (O31211 whole entry): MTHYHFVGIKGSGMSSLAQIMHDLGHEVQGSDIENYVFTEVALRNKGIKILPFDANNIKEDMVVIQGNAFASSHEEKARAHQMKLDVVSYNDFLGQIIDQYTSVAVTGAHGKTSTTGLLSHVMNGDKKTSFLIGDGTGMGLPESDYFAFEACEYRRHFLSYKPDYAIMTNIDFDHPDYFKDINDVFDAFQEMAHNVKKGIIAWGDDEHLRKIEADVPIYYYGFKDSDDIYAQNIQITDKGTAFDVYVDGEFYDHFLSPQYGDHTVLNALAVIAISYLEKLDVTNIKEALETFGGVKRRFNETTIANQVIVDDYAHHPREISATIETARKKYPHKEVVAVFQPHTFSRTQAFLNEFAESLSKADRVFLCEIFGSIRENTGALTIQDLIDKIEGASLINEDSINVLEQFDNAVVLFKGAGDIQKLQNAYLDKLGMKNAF

Staphylococcus aureus [4] = assay: Minimum inhibitory activity against Staphylococcus aureus GC 1131 (MRSA); format: functional
Staphylococcus aureus [5] = assay: Minimum inhibitory activity against Staphylococcus aureus GC 2216 (ATCC); format: functional
Escherichia coli [6] = assay: Minimum inhibitory activity against Escherichia coli GC 4560; format: functional
Enterococcus faecalis [7] = assay: Minimum inhibitory activity against Enterococcus faecalis GC 4555 (ATCC); format: functional
Escherichia coli [8] = assay: Minimum inhibitory activity against Escherichia coli GC 4559; format: functional
[9] = Minimum inhibitory activity against MSCNS GC 646; format: functional; settings: Staphylococcus
Staphylococcus aureus [10] = assay: Minimum inhibitory activity against Staphylococcus aureus GC 4543 (MSSA); format: functional
Enterococcus faecalis [11] = assay: Minimum inhibitory activity against Enterococcus faecalis GC 2242 (VRE); format: functional
[12] = molecular target: T3, UDP-N-acetylmuramoylalanine--D-glutamate ligase (Staphylococcus aureus, UniProt P0A091); assay: In vitro inhibitory activity against Staphylococcus aureus UDP-N-acetylmuramoyl-L-alanyl-D-glutamate synthetase
T3 sequence (P0A091 whole entry): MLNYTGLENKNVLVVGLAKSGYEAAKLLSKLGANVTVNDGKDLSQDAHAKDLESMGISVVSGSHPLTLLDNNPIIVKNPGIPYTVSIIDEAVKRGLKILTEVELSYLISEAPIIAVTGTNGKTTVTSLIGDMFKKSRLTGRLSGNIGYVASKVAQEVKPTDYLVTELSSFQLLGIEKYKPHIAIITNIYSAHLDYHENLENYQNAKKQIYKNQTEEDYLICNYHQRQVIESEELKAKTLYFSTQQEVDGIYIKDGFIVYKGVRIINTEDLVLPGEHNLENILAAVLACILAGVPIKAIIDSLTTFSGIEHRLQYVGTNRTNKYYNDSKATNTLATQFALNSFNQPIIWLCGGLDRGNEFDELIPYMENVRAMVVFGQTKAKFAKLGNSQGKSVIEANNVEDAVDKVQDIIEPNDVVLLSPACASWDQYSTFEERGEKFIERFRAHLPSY

[13] = Minimum inhibitory activity in presence of 4% bovine serum albumin against Streptococcus pneumoniae GC1894 (PRSP); format: functional
[14] = Minimum inhibitory activity against Streptococcus pneumoniae GC1894 (PRSP); format: functional

Compound | MIC (Bacteria) [µg/mL] | IC50 [1] [µM] | logP [2] | IC50 [3] [µM] | MIC (Staphylococcus aureus [4]) [µg/mL] | MIC (Staphylococcus aureus [5]) [µg/mL] | MIC (Escherichia coli [6]) [µg/mL] | MIC (Enterococcus faecalis [7]) [µg/mL] | MIC (Escherichia coli [8]) [µg/mL] | MIC [9] [µg/mL] | MIC (Staphylococcus aureus [10]) [µg/mL] | MIC (Enterococcus faecalis [11]) [µg/mL] | IC50 [12] [µM] | MIC [13] [µg/mL] | MIC [14] [µg/mL]
[O-][S+]1CCc2nn(-c3ccc(Cl)c(Cl)c3)c(O)c21 (configuration not stated) | > 128 | 66 | 2.01 | – | – | – | – | – | – | – | – | – | – | – | –
Oc1c2c(nn1-c1ccc(Cl)c(Cl)c1)CCS2 | – | 38.3 | 3.62 | 24.4 | 32 (≈ 111 µM) | 8 (≈ 27.9 µM) | 128 (≈ 446 µM) | 128 (≈ 446 µM) | > 128 | 16 (≈ 55.7 µM) | 8 (≈ 27.9 µM) | 64 (≈ 223 µM) | 48.8 | > 128 | 4 (≈ 13.9 µM)
